The values that follow are results of earlier work, collected in US8216495B2, “Preparation method for solid dispersions” (Formac Pharmaceuticals N.V., priority 2008, dated 2012).

≈ marks a conversion by molar mass, not a printed value. A value given as a limit tells only on which side of the number the result lay.

Assay in data set [1]: not given
This is another data set of the same source.

The conditions of data set [2]: weak base.

Regarding `NC(=O)N1c2ccccc2C=Cc2ccccc21` [Carbamazepine, 5H-dibenz[b,f]azepine-5-carboxamide], the solubility in water entry is given as “practically insoluble”. The “solubility in alcohol and acetone” value (alcohol and acetone) is “soluble”.

`C#C[C@]1(O)CC[C@H]2[C@@H]3CCC4=Cc5oncc5C[C@]4(C)[C@H]3CC[C@@]21C` [Danazol, 17a-Pregna-2,4-dien-20-yno[2,3-d]-isoxazol-17-ol]: in data set [1] (danazol administered orally), the half-life was 4 to 5 h, the “increase in plasma concentration on doubling the dose” value is given as 30-40% and the “time of peak concentrations” value was ≤ 2 h.

In the case of `CCC(C)n1ncn(-c2ccc(N3CCN(c4ccc(OCC5COC(Cn6cncn6)(c6ccc(Cl)cc6Cl)O5)cc4)CC3)cc2)c1=O` (stereo not drawn) [Itraconazole], the pKa in data set [2] is 4.0. Moreover, the aqueous solubility (pH=1) is 4 µg/mL (≈ 5.67 µM).

For `CC(=O)O[C@H]1C(=O)[C@@]2(C)[C@H]([C@H](OC(=O)c3ccccc3)[C@]3(O)C[C@H](OC(=O)[C@H](O)[C@@H](NC(=O)c4ccccc4)c4ccccc4)C(C)=C1C3(C)C)[C@]1(OC(C)=O)CO[C@@H]1C[C@@H]2O` [Paclitaxel], the solubility in water entry was “insoluble”.

In the case of `C=CC[C@@H]1/C=C(\C)C[C@H](C)C[C@H](OC)[C@H]2O[C@@](O)(C(=O)C(=O)N3CCCC[C@H]3C(=O)O[C@H](/C(C)=C/[C@@H]3CC[C@@H](O)[C@H](OC)C3)[C@H](C)[C@@H](O)CC1=O)[C@H](C)C[C@@H]2OC` [Tacrolimus], the solubility in water entry was “practically insoluble”. Moreover, the solubility in ethanol entry (ethanol) is listed as “freely soluble”. Under “methanol and chloroform”, the “solubility in methanol and chloroform” value is “very soluble”. Besides, the absolute bioavailability result in data set [1] (5 mg dose taken twice a day, oral) is reported as “approximately 17%”.
